Assay results published in patent publication US10132029B2, “Method for reducing adhesion of microorganisms to fabrics” (priority 2013, dated 2018).
Where “and” joins values, the source holds several entries; their conditions need not be identical. Identical values can stand only once. Like-named read-outs stand apart in the source and are kept apart here.

Experiments:
Escherichia coli = test: Bacterial adhesion to coated glass slides via fluorescence microscopy (DAPI); assay type: cell-based; settings: for Reduction in cell count relative to control [%] E. coli: coated glass slide vs uncoated glass control K; for Cell count [1/cm^2] E. coli: glass slide coated from 0.1% strength solution, bacterial suspension 10^9 microbes/ml, 30 measuring windows
From the text: (§1) Silane derivatives S1, S3, S4 and S5 as identified above in example 1 were used to produce coatings on glass slides. As a control (comparison sample) K, an uncoated glass slide cleaned with isopropanol was used.
(§2) For the coating of the slides they were immersed for 60 seconds into a 0.1% strength solution of the corresponding silane derivative in ethanol/water as solvent with a water fraction of 5%. The solutions had been adjusted with acetic acid beforehand to a pH in the range from 4 to 5. The wetted slides were subsequently dried at 160° C. for 1 hour.
(§3) The slides wetted with the bacterial suspension were analyzed by microscope to determine the adhering bacteria. […] The fluorescent dye used was DAPI (4′,6-diamidine-2-phenylindole), which binds to DNA and fluoresces under UV excitation. In order to determine the adhesion characteristics, the cell counts per cm^2 were ascertained in 30 measuring windows, and the adhesion pattern was evaluated. Cell attachment was evaluated on an Olympus IX 51 using the Labflow AnalySIS image processing program.
(§4) Bacterial suspensions produced and used were suspensions of test cultures of the strains Staphylococcus aureus and Escherichia coli. The concentration of the bacterial suspension was 10^9 microbes/ml.

P. aeruginosa DSMZ 1117 = assay type: cell-based, Pseudomonas aeruginosa; settings: for Reduction in adhered bacteria [%] P. aeruginosa: polyester fabric, application concentration 0.1 wt %, commercial product applied directly by padding, relative to uncoated fabric; for Reduction in adhered bacteria [%]: P. aeruginosa, polyester
Experimental: (§5) Circular fabric samples with a diameter of 0.6 cm were punched from coated and uncoated cotton and polyester fabrics. The fabric samples were fixed to a microtiter plate. The fabric samples were washed with acetone and sterilized with UV light for 60 minutes.
(§6) The strains were coated fresh from glycerol bacterial cultures onto tryptic soy agar (TSA). Incubation took place overnight at 33° C. The nutrient medium prepared was a tryptic soy broth (TSB), with 30% of the amount recommended by the manufacturer, supplemented with 0.25% of glucose. […] The nutrient medium was inoculated with the bacterial cultures and after inoculation was cultivated overnight at 37° C. and 160 rpm.
(§7) The resulting overnight cultures were centrifuged at 8500 g for 15 minutes and washed with 50 ml of isotonic saline solution (0.9 wt %). Bacterial suspensions in isotonic saline solutions were prepared. The optical density of the various bacterial suspensions was determined at 595 nm and adjusted to a level of about 1.2.
(§8) 50 μl of the final microorganism suspension in isotonic saline solution (0.9 wt %) prepared as described under 2.2 were added to the coated and uncoated fabric samples fixed on the microtiter plate (see 2.1). The microtiter plates were closed and sealed off with Parafilm. The microtiter plates were placed in an antievaporation box and incubated at 33° C. for 2 h and at 40 rpm. The expected colony-forming unit count (CFU) of the inoculum at the start was 10^6-10^7 CFU/ml.
After the biofilm had formed, the planctonic cells were removed and used as a sample for determining the optical density at 595 nm. For this purpose, the samples were made up to a volume of 150 μl, and 100 μl were withdrawn for the optical density determination in a photometer. […] Through the determination of the planctonic cells after the formation of biofilm, the amount of bacteria available for adhesion was monitored.
(§9) The fabric samples and the resulting biofilm were washed three times with 200 to 300 μl of isotonic saline solution.
(§10) The fabric samples obtained under 2.4 (after formation of biofilm) were placed together with 100 μl of isotonic saline solution into wells of a 96-well microtiter plate.
(§11) Investigations into the removal of the adhered microorganisms from the fabric surfaces were carried out with vortexing, ultrasound, with enzymatic treatment, or with combinations thereof. Treatment in the vortex amounted to 5 minutes and was performed horizontally. The ultrasound treatment was carried out in an ultrasound bath for 5 minutes. For the enzymatic removal, the fabric samples were treated with enzymes, such as trypsin or a mixture of different enzymes, for example, during incubation at 37° C. for 1 hour.
(§12) Following removal of the adhered bacteria, the fabric samples were removed from the microtiter plates.
(§13) The number of removed bacteria in the resulting suspension was determined by staining with Syto9 and fluorescence measurement (fluorescence filter with excitation at 485/20 nm and emission at 528/20 nm) or by staining with BacTiterGlo and bioluminescence measurement. Furthermore, it is possible to determine the number of adhered and removed microorganisms by means of protein assay (e.g., BCA assay, Bradford Assay) or optical density proliferation assay.
The relative variables (e.g., fluorescence units (RFU)) concerning the coated and uncoated fabrics were compared, allowing the reduction in adhered bacteria in % to be determined in accordance with the following formula: Reduction in adhered bacteria[%]=[(RFUuc−RFUuc)/RFUuc]*100 where • RFUuc=relative fluorescence units of the removed bacteria of the uncoated substrate • RFUc=relative fluorescence units of the removed bacteria of the coated substrate
The commercial products described in example 1 were applied directly by a padding method to polyester fabric samples.
Bacterial adhesion to the polyester fabric samples was investigated using the microtiter plate Syto9 assay, as described in example 2.

S. aureus DSMZ 20231 = test: Syto9 microtiter plate assay: adhesion of bacteria to coated polyester fabric samples; assay type: cell-based, Staphylococcus aureus; settings: for Reduction in adhered bacteria [%] S. aureus: polyester fabric, application concentration 0.1 wt %, commercial product applied directly by padding, relative to uncoated fabric; for Reduction in adhered bacteria [%]: S. aureus, polyester
Experimental: as §5, §6, §7, §8
After the biofilm had formed, the planctonic cells were removed and used as a sample for determining the optical density at 595 nm. For this purpose, the samples were made up to a volume of 150 μl, and 100 μl were withdrawn for the optical density determination in a photometer. The optical density of the corresponding control solution with sterile isotonic saline solution was subtracted from the optical densities found. Through the determination of the planctonic cells after the formation of biofilm, the amount of bacteria available for adhesion was monitored.
as §9, §10, §11, §12, §13
The relative variables (e.g., fluorescence units (RFU)) concerning the coated and uncoated fabrics were compared, allowing the reduction in adhered bacteria in % to be determined in accordance with the following formula: Reduction in adhered bacteria[%]=[(RFUuc−RFUuc)/RFUuc]*100 where • RFUuc=relative fluorescence units of the removed bacteria of the uncoated substrate • RFUc=relative fluorescence units of the removed bacteria of the coated substrate […]

Staphylococcus aureus [1] = assay type: cell-based; settings: for Reduction in cell count relative to control [%] S. aureus: coated glass slide vs uncoated glass control K; for Cell count [1/cm^2] S. aureus: glass slide coated from 0.1% strength solution, bacterial suspension 10^9 microbes/ml, 30 measuring windows
From the text: as §1, §2, §3, §4

Staphylococcus aureus [2] = test: Antimicrobial activity of coated polyester fabric samples as per JIS L 1902; assay type: cell-based; settings: for Antimicrobial activity[log] Unwashed: 18 hours at 37° C.
Experimental: The procedure here is that the fabric sample was inoculated with a defined amount of a microbial suspension (inoculum). Test specimens with a weight of approximately 0.4 g were investigated in a triplicate determination.
The inoculated fabric sample was incubated in a closed system at 37° C. over a period of 18 hours. Following incubation, the bacteria of a defined amount of a dilution solution were recorded. The difference in the bacterial count of the fabric sample at 0 hours in comparison to the fabric sample after 18 hours served as a basis for evaluation. The antimicrobial activity is reported as a logarithmic or percentage value. Here, a reduction in the microbe count of 0% corresponds to inadequate antimicrobial action, a microbe reduction in the range from 0.1 to less than 90% to an inadequate antibacterial action, and a microbe reduction of greater than 90% to a good antibacterial action.

[3] = coating concentration 0.001 % based on fabric
[4] = coating concentration 0.01 % based on fabric
[5] = coating concentration 0.1 % based on fabric
[6] = coating concentration 0.001 %, wash pretreatment (A) unwashed
[7] = coating concentration 0.001 %, wash pretreatment (B) washed twice at 30° C. only with water
[8] = coating concentration 0.01 %, wash pretreatment (A) unwashed
[9] = coating concentration 0.01 %, wash pretreatment (B) washed twice at 30° C. only with water
[10] = coating concentration 0.01 %, wash pretreatment (C) washed once at 30° C. EN ISO 6330 method 8A with ECE B detergent
[11] = coating concentration 0.1 %, wash pretreatment (A) unwashed
[12] = coating concentration 0.1 %, wash pretreatment (B) washed twice at 30° C. only with water
[13] = coating concentration 0.1 %, wash pretreatment (C) washed once at 30° C. EN ISO 6330 method 8A with ECE B detergent

“methoxy(polyethyleneoxy)propyltrimethoxysilane (9-12 EO units) [S1]” was tested, and the “adhesion of bacteria to coated glass, assessment in words” value (Escherichia coli; both series of tests (S. aureus and E. coli), compared with glass control) was “very good results”, the “Reduction in cell count relative to control [%] E. coli” value (Escherichia coli) was 63% and the “Cell count [1/cm^2] E. coli” value (Escherichia coli) was 296 000 1/cm^2. The “Reduction in adhered bacteria [%] P. aeruginosa” value (“Reduction … [%] P. aeruginosa” below) (P. aeruginosa DSMZ 1117) was 41%, the “Reduction in adhered bacteria [%] S. aureus” value (S. aureus DSMZ 20231) was 34% and the “Reduction in cell count relative to control [%] S. aureus” value (Staphylococcus aureus [1]) was 76%. The “adhesion of S. aureus to coated glass, assessment in words” value (Staphylococcus aureus [1]; coated glass slides) was “Very good results” and the “Cell count [1/cm^2] S. aureus” value (Staphylococcus aureus [1]) was 110 000 1/cm^2.

In the case of “bis[3-(triethoxysilylpropoxy)-2-hydroxypropoxy)]polyethylene oxide (5-10 EO units) [S2]”, the “Antimicrobial activity[log] Unwashed” value (Staphylococcus aureus [2]; [3]) is reported as 0.2 log, the “Antimicrobial activity[log] Washed once at 30° C., without detergent” value (Staphylococcus aureus [2]; [3]) is reported as −0.1 log and the “Antimicrobial activity[log] Washed twice with water” value (Staphylococcus aureus [2]; [3]) is reported as 0.1 log. For the same compound, the “Antimicrobial activity[log] Unwashed” value (Staphylococcus aureus [2]; [4]) was −0.4 log, the “Antimicrobial activity[log] Washed once at 30° C., without detergent” value (Staphylococcus aureus [2]; [4]) was −0.6 log and the “Antimicrobial activity[log] Washed twice with water” value (Staphylococcus aureus [2]; [4]) was 0.1 log. The “Antimicrobial activity[log] Unwashed” value (Staphylococcus aureus [2]; [5]) was −0.2 log, the “Antimicrobial activity[log] Washed once at 30° C., without detergent” value (Staphylococcus aureus [2]; [5]) was −0.4 log and the “Antimicrobial activity[log] Washed twice with water” value (Staphylococcus aureus [2]; [5]) was 0.00 log. For the same compound, the “Reduction in adhered bacteria [%]” value (P. aeruginosa DSMZ 1117; [6]) was 62%, the “Reduction in adhered bacteria [%]” value (P. aeruginosa DSMZ 1117; [7]) was 87% and the “Reduction in adhered bacteria [%]” value (P. aeruginosa DSMZ 1117; coating concentration 0.001 %, wash pretreatment (C) washed once at 30° C. EN ISO 6330 method 8A with ECE B detergent) was 55%. The “Reduction in adhered bacteria [%]” value (P. aeruginosa DSMZ 1117; [8]) was 79%, the “Reduction in adhered bacteria [%]” value (P. aeruginosa DSMZ 1117; [9]) was 36% and the “Reduction in adhered bacteria [%]” value (P. aeruginosa DSMZ 1117; [10]) was 75%. The “Reduction in adhered bacteria [%]” value (P. aeruginosa DSMZ 1117; [11]) was 68%, the “Reduction in adhered bacteria [%]” value (P. aeruginosa DSMZ 1117; [12]) was 45% and the “Reduction in adhered bacteria [%]” value (P. aeruginosa DSMZ 1117; [13]) was 75%. For the same compound, the “Reduction … [%] P. aeruginosa” value (P. aeruginosa DSMZ 1117) was 64%, the “Reduction in adhered bacteria [%]” value (S. aureus DSMZ 20231; [6]) was 30% and the “Reduction in adhered bacteria [%]” value (S. aureus DSMZ 20231; [7]) was 52%. For the same compound, the “Reduction in adhered bacteria [%]” value (S. aureus DSMZ 20231; [8]) was 71%, the “Reduction in adhered bacteria [%]” value (S. aureus DSMZ 20231; [9]) was 31% and the “Reduction in adhered bacteria [%]” value (S. aureus DSMZ 20231; [10]) was 66%. The “Reduction in adhered bacteria [%]” value (S. aureus DSMZ 20231; [11]) was 55%, the “Reduction in adhered bacteria [%]” value (S. aureus DSMZ 20231; [12]) was 48% and the “Reduction in adhered bacteria [%]” value (S. aureus DSMZ 20231; [13]) was 49%. The “Reduction in adhered bacteria [%] S. aureus” value (S. aureus DSMZ 20231) was 85%.

`CCO[Si](CCCNC(=O)[C@H](O)[C@@H](O)[C@H](O)[C@H](O)CO)(OCC)OCC` [S4, N-(triethoxysilylpropyl)gluconamide] was tested, and the “Reduction in cell count relative to control [%] E. coli” value (Escherichia coli) was 51%, the “Cell count [1/cm^2] E. coli” value (Escherichia coli) was 389 000 1/cm^2 and the “Reduction … [%] P. aeruginosa” value (P. aeruginosa DSMZ 1117) was 57%. For the same compound, the “Reduction in adhered bacteria [%] S. aureus” value (S. aureus DSMZ 20231) was 58%, the “adhesion pattern on microscopic inspection” value (Staphylococcus aureus [1]; S. aureus on coated glass surface) was “only a few grapelike assemblies of S. aureus” and the “Reduction in cell count relative to control [%] S. aureus” value (Staphylococcus aureus [1]) was 16% and 17%. The “Cell count [1/cm^2] S. aureus” value (Staphylococcus aureus [1]) was 383 000 1/cm^2.
